This assay has as its target T1, PD-1/PD-L1 interaction (Homo sapiens, UniProt Q9NZQ7).
T1 construct: purchased CisBio 63ADK000CPAPEG
Kind of assay: PD-1/PD-L1 HTRF binding assay (CisBio kit). The conditions noted are these: HTRF PD1/PD-L1 inhibition assay. As for the experimental part:
PD-L1 Enzyme Assay: Homogenous Time-Resolved Fluorescence (HTRF) Binding Assay
All binding studies were performed using PD-1/PD-L1 Binding Assay Kit from CisBio (Catalog #63ADK000CPAPEG), according to the manufacturer's protocol. The interaction between Tag1-PD-1 and […] was detected by anti-Tag1-Eu^3+ (HTRF donor) and anti-Tag2-XL665 (HTRF acceptor). When the donor and acceptor antibodies were brought to close proximity due to PD-1 and PD-L1 binding, excitation of the donor antibody triggered fluorescent resonance energy transfer (FRET) towards the acceptor antibody, which in turn emitted specifically at 665 nm. This specific signal is positively proportional to PD-1/PD-L1 interaction. The compounds blocking PD-1/PD-L1 interaction will cause a reduction in HTRF signal. The necessary reagents were mixed in the following order: 2 μL compounds (or diluents buffer), 4 μL PD-L1 protein, 4 μL PD-1 protein. After an incubation of 15 minutes, 5 μL of anti-Tag1-Eu^3+ and 5 μL of anti-Tag2-XL665 were added. The plate was sealed and incubated at room temperature for 1 h. The fluorescence emission was read at two different wavelengths (665 nm and 620 nm) on a BMG PheraStar® multi-plate reader.
Results were calculated from the 665 nm and 620 nm fluorescence signal and expressed in HTRF ratio=(665 nm/620 nm)×10^4.
Compounds having IC50<100 nM are designated as “A”; 100-500 nM are designated as “B”; and >500 nM are designated as “C” respectively.

23 compounds from patent publication US20240246931A1, “COMPOUNDS AS PD1/PD-L1 INHIBITORS AND METHODS THEREOF” (JUBILANT PRODEL LLC, priority 2021, published 2024) can be followed below.

Molecules are shown by their SMILES. Where only a bound is given, the exact number is not on record here.

T1 sequence (Q9NZQ7 19-238 limits assumed): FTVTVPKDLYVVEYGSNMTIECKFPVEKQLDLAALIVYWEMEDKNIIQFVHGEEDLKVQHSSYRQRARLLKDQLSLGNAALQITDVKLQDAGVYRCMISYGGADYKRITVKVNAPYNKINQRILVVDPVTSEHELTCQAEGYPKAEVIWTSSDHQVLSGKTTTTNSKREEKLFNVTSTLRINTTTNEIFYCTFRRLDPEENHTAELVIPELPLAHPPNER

On to `Cc1c(COc2cc(OCc3cncc(C#N)c3)c(C(=O)N3CCC[C@H]3CO)c3c2CCC3)cccc1-c1ccccc1` [Example 50, (S)-5-(((4-(2-(hydroxymethyl)pyrrolidine-1-carbonyl)-7-((2-methyl-[1,1′-biphenyl]-3-yl)methoxy)-2,3-dihydro-1H-inden-5-yl)oxy)methyl)nicotinonitrile], for which the IC50 (commonly the midpoint of a concentration-inhibition curve) lay within 100 to 500 nM.
With `Cc1c(COc2cc(OCc3cncc(C#N)c3)c(C(=O)N3CC[C@H](CO)C3)c3c2CCC3)cccc1-c1ccccc1` [Example 51, (S)-5-(((4-(3-(hydroxymethyl)pyrrolidine-1-carbonyl)-7-((2-methyl-[1,1′-biphenyl]-3-yl)methoxy)-2,3-dihydro-1H-inden-5-yl)oxy)methyl)nicotinonitrile], the IC50 fell in the range of 100 to 500 nM.
`CC(=O)NCC1CCCN1Cc1c(OCc2cncc(C#N)c2)cc(OCc2cccc(-c3ccccc3)c2C)c2c1CCC2` (centres unmarked) [Example 52, N-((1-((5-((5-cyanopyridin-3-yl)methoxy)-7-((2-methyl-[1,1′-biphenyl]-3-yl)methoxy)-2,3-dihydro-1H-inden-4-yl)methyl)pyrrolidin-2-yl)methyl)acetamide] showed an IC50 of less than 100 nM.
Compound `Cc1c(COc2cc(OCc3cncc(C#N)c3)c(CN3CCCC3CN)c3c2CCC3)cccc1-c1ccccc1` (centres unmarked) [Example 53, 5-(((4-((2-(aminomethyl)pyrrolidin-1-yl)methyl)-7-((2-methyl-[1,1′-biphenyl]-3-yl)methoxy)-2,3-dihydro-1H-inden-5-yl)oxy)methyl)nicotinonitrile] gave a 50% inhibitory concentration (IC50) of less than 100 nM.
Take `Cc1c(Br)cccc1COc1cc(OCc2cncc(C#N)c2)c(CN2CCC2CO)c2c1CCC2` (centres unmarked) [Example 54, 5-(((7-((3-bromo-2-methylbenzyl)oxy)-4-((2-(hydroxymethyl)azetidin-1-yl)methyl)-2,3-dihydro-1H-inden-5-yl)oxy)methyl)nicotinonitrile]: the IC50 is greater than 500 nM.
For `Cc1c(COc2cc(OCc3cncc(C#N)c3)c(CN3CCC3CO)c3c2CCC3)cccc1-c1ccc(O)cc1` (centres unmarked) [Example 55, 5-(((7-((4′-hydroxy-2-methyl-[1,1′-biphenyl]-3-yl)methoxy)-4-((2-(hydroxymethyl)azetidin-1-yl)methyl)-2,3-dihydro-1H-inden-5-yl)oxy)methyl)nicotinonitrile], the IC50 lay within 100 to 500 nM.
For `Cc1ccc(F)c(-c2cccc(COc3cc(OCc4cncc(C#N)c4)c(CN4CCC4CO)c4c3CCC4)c2C)c1` (centres unmarked) [Example 56, 5-(((7-((2′-fluoro-2,5′-dimethyl-[1,1′-biphenyl]-3-yl)methoxy)-4-((2-(hydroxymethyl)azetidin-1-yl)methyl)-2,3-dihydro-1H-inden-5-yl)oxy)methyl)nicotinonitrile], the IC50 is 100 to 500 nM.
In turn, `Cc1c(COc2cc(OCc3cncc(C#N)c3)c(CN3CCC3CO)c3c2CCC3)cccc1-c1cn[nH]c1` (centres unmarked) [Example 57, 5-(((4-((2-(hydroxymethyl)azetidin-1-yl)methyl)-7-((2-methyl-3-(1H-pyrazol-4-yl)benzyl)oxy)-2,3-dihydro-1H-inden-5-yl)oxy)methyl)nicotinonitrile] yielded a concentration for half-maximal inhibition (IC50) greater than 500 nM.
`COc1ccc(-c2cccc(COc3cc(OCc4cncc(C#N)c4)c(CN4CCC4CO)c4c3CCC4)c2C)c(C)c1` (centres unmarked) [Example 58, 5-(((4-((2-(hydroxymethyl)azetidin-1-yl)methyl)-7-((4′-methoxy-2,2′-dimethyl-[1,1′-biphenyl]-3-yl)methoxy)-2,3-dihydro-1H-inden-5-yl)oxy)methyl)nicotinonitrile] showed an IC50 greater than 500 nM.
For the compound `Cc1c(COc2cc(OCc3cncc(C#N)c3)c(CN3CCC3CO)c3c2CCC3)cccc1-c1cncnc1` (centres unmarked) [Example 59, 5-(((4-((2-(hydroxymethyl)azetidin-1-yl)methyl)-7-((2-methyl-3-(pyrimidin-5-yl)benzyl)oxy)-2,3-dihydro-1H-inden-5-yl)oxy)methyl)nicotinonitrile], the IC50 is greater than 500 nM.
Consider `Cc1c(COc2cc(OCc3cncc(C#N)c3)c(CN3CCC3CO)c3c2CCC3)cccc1-c1ccccc1C(F)(F)F` (centres unmarked) [Example 60, 5-(((4-((2-(hydroxymethyl)azetidin-1-yl)methyl)-7-((2-methyl-2′-(trifluoromethyl)-[1,1′-biphenyl]-3-yl)methoxy)-2,3-dihydro-1H-inden-5-yl)oxy)methyl)nicotinonitrile], for which the IC50 was in the range of 100 to 500 nM.
`Cc1c(COc2cc(OCc3cncc(C#N)c3)c(CN3CCC3CO)c3c2CCC3)cccc1-c1ccc(N2CCOCC2)nc1` (centres unmarked) [Example 61, 5-(((4-((2-(hydroxymethyl)azetidin-1-yl)methyl)-7-((2-methyl-3-(6-morpholinopyridin-3-yl)benzyl)oxy)-2,3-dihydro-1H-inden-5-yl)oxy)methyl)nicotinonitrile] showed an IC50 greater than 500 nM.
The same measure for `Cc1c(COc2cc(OCc3cncc(C#N)c3)c(CN3CCC3CO)c3c2CCC3)cccc1-c1ccccc1F` (centres unmarked) [Example 62, 5-(((7-((2′-fluoro-2-methyl-[1,1′-biphenyl]-3-yl)methoxy)-4-((2-(hydroxymethyl)azetidin-1-yl)methyl)-2,3-dihydro-1H-inden-5-yl)oxy)methyl)nicotinonitrile]: less than 100 nM.
With `COc1ccc(-c2cccc(COc3cc(OCc4cncc(C#N)c4)c(CN4CCC4CO)c4c3CCC4)c2C)cc1` (centres unmarked) [Example 63, 5-(((4-((2-(hydroxymethyl)azetidin-1-yl)methyl)-7-((4′-methoxy-2-methyl-[1,1′-biphenyl]-3-yl)methoxy)-2,3-dihydro-1H-inden-5-yl)oxy)methyl)nicotinonitrile], the IC50 is greater than 500 nM.
`Cc1c(COc2cc(OCc3cncc(C#N)c3)c(CN3CCC3CO)c3c2CCC3)cccc1-c1cccc(F)c1` (centres unmarked) [Example 64, 5-(((7-((3′-fluoro-2-methyl-[1,1′-biphenyl]-3-yl)methoxy)-4-((2-(hydroxymethyl)azetidin-1-yl)methyl)-2,3-dihydro-1H-inden-5-yl)oxy)methyl)nicotinonitrile]: the 50% inhibitory concentration (IC50) is less than 100 nM.
`COc1cccc(-c2cccc(COc3cc(OCc4cncc(C#N)c4)c(CN4CCC4CO)c4c3CCC4)c2C)c1` (centres unmarked) [Example 65, 5-(((4-((2-(hydroxymethyl)azetidin-1-yl)methyl)-7-((3′-methoxy-2-methyl-[1,1′-biphenyl]-3-yl)methoxy)-2,3-dihydro-1H-inden-5-yl)oxy)methyl)nicotinonitrile] had an IC50 of less than 100 nM.
For the compound `Cc1c(COc2cc(OCc3cncc(C#N)c3)c(CN3CCC3CO)c3c2CCC3)cccc1-c1ccc(OC(F)(F)F)cc1` (centres unmarked) [Example 66, 5-(((4-((2-(hydroxymethyl)azetidin-1-yl)methyl)-7-((2-methyl-4′-(trifluoromethoxy)-[1,1′-biphenyl]-3-yl)methoxy)-2,3-dihydro-1H-inden-5-yl)oxy)methyl)nicotinonitrile], the IC50 was greater than 500 nM.
On to `Cc1c(COc2cc(OCc3cncc(C#N)c3)c(CN3CCC3CO)c3c2CCC3)cccc1-c1cccc(O)c1` (centres unmarked) [Example 67, 5-(((7-((3′-hydroxy-2-methyl-[1,1′-biphenyl]-3-yl)methoxy)-4-((2-(hydroxymethyl)azetidin-1-yl)methyl)-2,3-dihydro-1H-inden-5-yl)oxy)methyl)nicotinonitrile], for which the IC50 was less than 100 nM.
Next, `Cc1c(COc2cc(OCc3cncc(C#N)c3)c(CN3CCC3CO)c3c2CCC3)cccc1-c1cnn(C)c1` (centres unmarked) [Example 68, 5-(((4-((2-(hydroxymethyl)azetidin-1-yl)methyl)-7-((2-methyl-3-(1-methyl-1H-pyrazol-4-yl)benzyl)oxy)-2,3-dihydro-1H-inden-5-yl)oxy)methyl)nicotinonitrile]: greater than 500 nM.
Turning to `Cc1c(COc2cc(OCc3cncc(C#N)c3)c(CN3CCC3CO)c3c2CCC3)cccc1-c1cccc2cccnc12` (centres unmarked) [Example 69, 5-(((4-((2-(hydroxymethyl)azetidin-1-yl)methyl)-7-((2-methyl-3-(quinolin-8-yl)benzyl)oxy)-2,3-dihydro-1H-inden-5-yl)oxy)methyl)nicotinonitrile], the IC50 was greater than 500 nM.
`Cc1c(COc2cc(OCc3cncc(C#N)c3)c(CN3CCC3CO)c3c2CCC3)cccc1-c1ccncc1` (centres unmarked) [Example 70, 5-(((4-((2-(hydroxymethyl)azetidin-1-yl)methyl)-7-((2-methyl-3-(pyridin-4-yl)benzyl)oxy)-2,3-dihydro-1H-inden-5-yl)oxy)methyl)nicotinonitrile]: the IC50 is greater than 500 nM.
For `Cc1c(COc2cc(OCc3cncc(C#N)c3)c(CN3CCC3CO)c3c2CCC3)cccc1-c1cccnc1` (centres unmarked) [Example 71, 5-(((4-((2-(hydroxymethyl)azetidin-1-yl)methyl)-7-((2-methyl-3-(pyridin-3-yl)benzyl)oxy)-2,3-dihydro-1H-inden-5-yl)oxy)methyl)nicotinonitrile], the IC50 lay in the range of 100 to 500 nM.
Consider `Cc1c(COc2cc(OCc3cncc(C#N)c3)c(CN3CC[C@H]3CO)c3c2CCC3)cccc1-c1cnc2[nH]ccc2c1` [Example 72, (S)-5-(((4-((2-(hydroxymethyl)azetidin-1-yl)methyl)-7-((2-methyl-3-(1H-pyrrolo[2,3-b]pyridin-5-yl)benzyl)oxy)-2,3-dihydro-1H-inden-5-yl)oxy)methyl)nicotinonitrile], for which the IC50 was in the range of 100 to 500 nM.
